Legend:
Puccinia recondita = test: In vivo preventive test on Puccinia recondita (brown rust on wheat); details: 500 ppm, wheat plants sprayed 24 h before contamination, graded 12 days after contamination
Protocol: Wheat plants (“Scipion” variety), sown in starter cups on a 50/50 peat soil-pozzolana substrate and grown at 22° C., are treated at the 1-leaf stage (10 cm height) by spraying with the active ingredient prepared as described above. Plants, used as controls, are treated with the mixture of acetone/tween/DMSO/water not containing the active material. After 24 hours, the plants are contaminated by spraying the leaves with an aqueous suspension of Puccinia recondita spores (100 000 spores per ml). The spores are collected from an infected plant and are suspended in water to containing 2.5 ml/l of Tween 80 at 10%. […] Grading (% of efficacy) is carried out 12 days after the contamination, in comparison with the control plants.

[1] = logP by HPLC on reversed phase columns (EEC directive 79/831 Annex V.A8); format: physicochemical; details: method [a]: LC-MS at pH 2.7, 0.1% formic acid in water / acetonitrile
Uromyces appendiculatus = test: In vivo preventive test on Uromyces appendiculatus (bean rust); details: preventive, bean plants, dose of 500 ppm, grading 11 days after contamination
Protocol: Bean plants (“Saxa” variety), sown in starter cups on a 50/50 peat soil-pozzolana substrate and grown at 24° C., are treated at the 2-leaf stage (9 cm height) by spraying with the active ingredient prepared as described above. Plants, used as controls, are treated with the mixture of acetone/tween/DMSO/water not containing the active material. After 24 hours, the plants are contaminated by spraying the leaves with an aqueous suspension of Uromyces appendiculatus spores (150 000 spores per ml). The spores are collected from infected plants and are suspended in water containing 2.5 ml/1 of Tween 80 at 10%. […] Grading (% of efficacy) is carried out 11 days after the contamination, in comparison with the control plants.

Sphaerotheca fuliginea = test: In vivo preventive test on Sphaerotheca fuliginea (powdery mildew on cucurbits); details: 500 ppm, gherkin plants sprayed 24 h before contamination, graded 12 days after contamination
Protocol: Gherkin plants (“Vert petit de Paris” variety), sown in starter cups on a 50/50 peat soil-pozzolana substrate and grown at 24° C., are treated at the Z11 cotyledon stage by spraying with the active ingredient prepared as described above. Plants, used as controls, are treated with the mixture of acetone/tween/DMSO/water not containing the active material. After 24 hours, the plants are contaminated by spraying the cotyledons with an aqueous suspension of Sphaerotheca fuliginea spores (100 000 spores per ml). The spores are collected from infected plants. […] Grading (% of efficacy) is carried out 12 days after the contamination, in comparison with the control plants.

Septoria tritici = test: In vivo preventive test on Septoria tritici (leaf spot on wheat); details: 500 ppm, wheat plants sprayed 24 h before contamination, graded 24 days after contamination
Protocol: Wheat plants (“Scipion” variety), sown in starter cups on a 50/50 peat soil-pozzolana substrate and grown at 22° C., are treated at the 1-leaf stage (10 cm height) by spraying with the active ingredient prepared as described above. Plants, used as controls, are treated with the mixture of acetone/tween/DMSO/water not containing the active material. After 24 hours, the plants are contaminated by spraying the leaves with an aqueous suspension of cryopreserved Septoria tritici spores (500 000 spores per ml). The contaminated wheat plants are incubated for 72 hours at 18° C. and at 100% relative humidity, and then for 21 days at 90% relative humidity. Grading (% of efficacy) is carried out 24 days after the contamination, in comparison with the control plants.

[2] = compounds of formula (I), Table 1
[3] = amines of formula (III-a), Table 2

Row | Structure (SMILES) | logP [1, 2] | Eff. % (Puccinia recondita) [%] | further results
1 | CON=C1c2cccc(NC(=O)c3c(C)nn(C)c3F)c2CC1(C)C (mixture of isomers) [Example 34] |  | 71 | 
2 | CON=C1c2cccc(NC(=O)c3c(C)nn(C)c3C)c2CC1(C)C (mixture of isomers) [Example 35] |  | 79 | 
3 | CC(C)C1Cc2cccc(N)c2C1 (racemic) [Example III-a-1] |  |  | logP [1, 3]: 2.25[a]
4 | CC(C)C1Cc2c(N)cccc2C1(C)C (racemic) [Example III-a-2] |  |  | logP [1, 3]: 2.8[a]
5 | CC1Cc2c(N)cccc2C1(C)C (racemic) [Example III-a-3] |  |  | logP [1, 3]: 1.95[a]
6 | Cn1cc(C(=O)Nc2cccc3c2CC(O)C3)c(C(F)F)n1 (centres unmarked) [Example 1] |  |  | Eff. % (Septoria tritici): 70%
7 | CCc1nn(C)c(Cl)c1C(=O)Nc1cccc2c1CC(C)C2(C)C (centres unmarked) [Example 7] | 4.31[a] | 96 | Eff. % (Uromyces appendiculatus): 100%
8 | CC1Cc2c(NC(=O)c3c(C(F)(F)F)nn(C)c3Cl)cccc2C1(C)C (centres unmarked) [Example 11] | 4.26[a] | 96 | Eff. % (Uromyces appendiculatus): 100%
9 | CCc1nn(C)c(F)c1C(=O)Nc1cccc2c1CC(C)(C)C2C (centres unmarked) [Example 14] | 3.99[a] | 98 | Eff. % (Uromyces appendiculatus): 100%
10 | Cc1c(C(=O)Nc2cccc3c2CC(C)C3(C)C)c(C(F)(F)F)nn1C (centres unmarked) [Example 18] | 3.83[a] | 75 | 
11 | CCCc1nn(C)c(F)c1C(=O)Nc1cccc2c1CC(C)C2(C)C (centres unmarked) [Example 19] | 4.39[a] |  | 
12 | CCCc1nn(C)cc1C(=O)Nc1cccc2c1CC(C)C2(C)C (centres unmarked) [Example 21] | 3.64[a] | 75 | 
13 | CC1Cc2c(NC(=O)c3cnn(C)c3Cl)cccc2C1(C)C (centres unmarked) [Example 22] | 3.44[a] | 81 | Eff. % (Septoria tritici): 92%
14 | CC(C)c1nn(C)cc1C(=O)Nc1cccc2c1CC(C)C2(C)C (centres unmarked) [Example 23] | 3.69[a] | 81 | Eff. % (Uromyces appendiculatus): 89%
15 | Cc1nn(C)c(C)c1C(=O)Nc1cccc2c1CC(C(C)C)C2(C)C (centres unmarked) [Example 42] | 3.87[a] | 100 | Eff. % (Sphaerotheca fuliginea): 100%; Eff. % (Uromyces appendiculatus): 100%
16 | Cc1nn(C)c(C)c1C(=O)Nc1cccc2c1CC(C)(C)C2 [Example 43] | 2.77[a] | 89 | 
17 | Cc1nn(C)c(F)c1C(=O)Nc1cccc2c1CC(C)(C)C2 [Example 44] |  | 78 | Eff. % (Uromyces appendiculatus): 98%
18 | CCc1c(C(=O)Nc2cccc3c2CC(C(C)C)C3(C)C)cnn1C (centres unmarked) [Example 46] | 4.21[a] |  | 
19 | CCCc1nn(C)cc1C(=O)Nc1cccc2c1CC(C(C)C)C2(C)C (centres unmarked) [Example 47] | 4.51[a] |  | 
20 | CCCc1nn(C)c(F)c1C(=O)Nc1cccc2c1CC(CC)C2(C)C (centres unmarked) [Example 48] | 4.85[a] |  | Eff. % (Sphaerotheca fuliginea): 94%

Row | Structure (SMILES) | logP [1, 2] | Eff. % (Puccinia recondita) [%] | further results
21 | CCC1Cc2c(NC(=O)c3c(C(F)(F)F)nn(C)c3C)cccc2C1(C)C (centres unmarked) [Example 49] | 4.3[a] | 94 | Eff. % (Uromyces appendiculatus): 99%
22 | CCC1(CC)Cc2c(NC(=O)c3c(C)nn(C)c3C)cccc2C1C (centres unmarked) [Example 51] | 3.85[a] |  | 
23 | Cc1nn(C)c(C(F)(F)Cl)c1C(=O)Nc1cccc2c1CC(C(C)C)C2(C)C (centres unmarked) [Example 53] | 4.86[a] |  | 
24 | Cc1c(C(=O)Nc2cccc3c2CC(C(C)C)C3(C)C)c(C(F)(F)F)nn1C (centres unmarked) [Example 54] | 4.66[a] | 81 | Eff. % (Uromyces appendiculatus): 83%
25 | Cc1nn(C)c(C)c1C(=O)Nc1cccc2c1CC(C)(C)C2C (centres unmarked) [Example 55] | 3.09[a] | 100 | Eff. % (Sphaerotheca fuliginea): 88%; Eff. % (Uromyces appendiculatus): 100%
26 | CCC1Cc2c(NC(=O)c3c(C)nn(C)c3C(F)(F)Cl)cccc2C1(C)C (centres unmarked) [Example 58] | 4.46[a] |  | 
27 | CCC1Cc2c(NC(=O)c3cnn(C)c3C)cccc2C1(C)C (centres unmarked) [Example 59] | 3.42[a] | 89 | Eff. % (Uromyces appendiculatus): 100%
28 | Cc1nn(C)c(F)c1C(=O)Nc1cccc2c1CC(C)(C)C2C (centres unmarked) [Example 60] | 3.5[a] | 98 | Eff. % (Sphaerotheca fuliginea): 98%; Eff. % (Uromyces appendiculatus): 100%
29 | CC(C)C1Cc2c(N)cccc2C1C (centres unmarked) [Example III-a-5] |  |  | logP [1, 3]: 2.34[a]
30 | CC1c2cccc(N)c2CC12CCCC2 (centres unmarked) [Example III-a-7, 1′-methyl-1′,3′-dihydrospiro[cyclopentane-1,2′-inden]-4′-amine] |  |  | chromatographic logP ([1]; reversed phase HPLC columns, amines of formula (III-a), Table 2, read-out: logP): 2.39
31 | Nc1cccc2c1CC(Cc1ccccc1)C2 (centres unmarked) [Example III-a-8] |  |  | logP [1, 3]: 2.54[a]
32 | CC1Cc2c(N)cccc2C1C (centres unmarked) [Example III-a-13] |  |  | logP [1, 3]: 1.44[a]
33 | CC1c2c(N)cccc2C(C)(C)C1C (centres unmarked) [Example III-a-14] |  |  | logP [1, 3]: 2.4[a]
34 | CCC1Cc2c(N)cccc2C1(C)C (centres unmarked) [Example III-a-17] |  |  | logP [1, 3]: 2.47[a]
35 | CCC1(CC)Cc2c(N)cccc2C1C (centres unmarked) [Example III-a-18] |  |  | logP [1, 3]: 2.63[a]
36 | Nc1cccc2c1CC1(CCCC1)C2 [III-a-4] |  |  | logP [1, 3]: 2.1[a]
37 | CCC1Cc2cccc(N)c2C1 (centres unmarked) [III-a-6] |  |  | logP [1, 3]: 1.76[a]
38 | CC(C)C1Cc2cccc(N)c2C1C (centres unmarked) [III-a-9] |  |  | logP [1, 3]: 2.9[a]
39 | Nc1cccc2c1CC(C1CCCC1)C2 (centres unmarked) [III-a-11] |  |  | logP [1, 3]: 2.94[a]
40 | CON=C1c2cccc(N)c2CC1(C)C [III-a-12] |  |  | logP [1, 3]: 2.08[a]

Now from value to molecule, other results behind:

Row | logP [1, 2] | Structure (SMILES) | Eff. % (Puccinia recondita) [%] | further results
41 | 4.56[a] | CC(C)c1nn(C)cc1C(=O)Nc1cccc2c1CC(C(C)C)C2(C)C (racemic) [Example 61] |  | 
42 | 3.73[a] | Cc1c(C(=O)Nc2cccc3c2CC(C(C)C)C3(C)C)cnn1C (racemic) [Example 62] | 81 | Eff. % (Uromyces appendiculatus): 99%
43 | 3.83[a] | CCc1c(C(=O)Nc2cccc3c2CC(CC)C3(C)C)cnn1C (racemic) [Example 63] |  | 
44 | 4.2[a] | CCCc1nn(C)cc1C(=O)Nc1cccc2c1CC(CC)C2(C)C (racemic) [Example 64] |  | 
45 | 5.29[a] | CCCc1nn(C)c(F)c1C(=O)Nc1cccc2c1CC(C(C)C)C2(C)C (racemic) [Example 65] |  | 
46 | 4.18[a] | CCC1Cc2c(NC(=O)c3cn(C)nc3C(C)C)cccc2C1(C)C (racemic) [Example 67] |  | 
47 | 4.32[a] | CCC1(CC)Cc2c(NC(=O)c3c(C)nn(C)c3F)cccc2C1C (racemic) [Example 70] | 98 | Eff. % (Sphaerotheca fuliginea): 98%; Eff. % (Uromyces appendiculatus): 100%
48 | 3[a] | Cc1c(C(=O)Nc2cccc3c2CC(C)C3(C)C)cnn1C (racemic) [Example 71] | 81 | Eff. % (Septoria tritici): 97%; Eff. % (Uromyces appendiculatus): 79%
49 | 3.27[a] | CCc1nn(C)cc1C(=O)Nc1cccc2c1CC(C)C2(C)C (racemic) [Example 73] | 88 | Eff. % (Uromyces appendiculatus): 100%
50 | 3.67[a] | CC1Cc2c(NC(=O)c3cn(C)nc3[N+](=O)[O-])cccc2C1(C)C (racemic) [Example 76] |  | 
51 | 4.46[a] | CC1Cc2c(NC(=O)c3c(C4CC4)nn(C)c3Cl)cccc2C1(C)C (racemic) [Example 78] |  | 
52 | 3.83[a] | Cc1nn(C)c(Cl)c1C(=O)Nc1cccc2c1CC(C)C2(C)C (racemic) [Example 80] | 98 | Eff. % (Uromyces appendiculatus): 100%
53 | 4.09[a] | CC1Cc2c(NC(=O)c3c(C(F)(F)F)nn(C)c3C(F)F)cccc2C1(C)C (racemic) [Example 81] |  | 
54 | 4.06[a] | CCc1nn(C)cc1C(=O)Nc1cccc2c1CC(CC)(CC)C2C (racemic) [Example 82] |  | 
55 | 4.09[a] | CC1Cc2c(NC(=O)c3c(C(F)(F)F)nn(C)c3F)cccc2C1(C)C (racemic) [Example 83] | 98 | Eff. % (Uromyces appendiculatus): 100%
56 | 4.21[a] | CC1Cc2c(NC(=O)c3cn(C)nc3C(F)(F)C(F)(F)F)cccc2C1(C)C (racemic) [Example 85] |  | 
57 | 3.99[a] | Cc1c(C(=O)Nc2cccc3c2CC(C)C3(C)C)c(C(F)(F)Cl)nn1C (centres unmarked) [Example 72] |  | 
